In ChEMBL document CHEMBL1201862, “PubChem BioAssay data set” (2004):
Active and inactive are the calls of the source.

How the values were obtained:
[1] = molecular target: T1, Nuclear receptor subfamily 0 group B member 1 (Homo sapiens, UniProt P51843); assay: Luminescence-based cell-based high throughput dose response assay for inhibitors of the orphan nuclear receptor subfamily 0, group B, member 1 (DAX1; NR0B1). [Related pubchem assays (depositor defined):AID504766, AID504790]; assay type: functional
T1 sequence (P51843 whole entry): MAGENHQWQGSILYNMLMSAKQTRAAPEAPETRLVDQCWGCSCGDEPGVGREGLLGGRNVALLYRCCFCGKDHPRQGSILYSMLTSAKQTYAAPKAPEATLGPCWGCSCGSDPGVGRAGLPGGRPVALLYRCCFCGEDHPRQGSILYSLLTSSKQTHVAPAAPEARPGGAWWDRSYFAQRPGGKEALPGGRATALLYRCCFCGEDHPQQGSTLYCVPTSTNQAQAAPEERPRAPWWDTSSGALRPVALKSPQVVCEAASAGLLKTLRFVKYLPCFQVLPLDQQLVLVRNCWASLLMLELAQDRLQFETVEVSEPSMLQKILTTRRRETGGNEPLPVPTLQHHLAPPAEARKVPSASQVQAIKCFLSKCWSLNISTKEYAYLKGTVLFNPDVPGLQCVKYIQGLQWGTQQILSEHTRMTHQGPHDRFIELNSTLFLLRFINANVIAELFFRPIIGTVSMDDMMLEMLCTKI

[2] = test system: HEK293; assay: cells; assay type: functional, cell-based; details: Homo sapiens
[3] = test system: HEK293; assay: cells; assay type: functional, cell-based; details: Homo sapiens; remark: listed apart in the source
[4] = molecular target: T2, Protein RecA (Mycobacterium tuberculosis, UniProt P9WHJ3); assay: Fluorescence Cell-Free Homogeneous Dose Retest to Identify Inhibitors of RecA-Intein Splicing Activity. [Related pubchem assays (depositor defined):AID2097, AID2223, AID489010, AID492950]; assay type: functional
T2 sequence (P9WHJ3 whole entry): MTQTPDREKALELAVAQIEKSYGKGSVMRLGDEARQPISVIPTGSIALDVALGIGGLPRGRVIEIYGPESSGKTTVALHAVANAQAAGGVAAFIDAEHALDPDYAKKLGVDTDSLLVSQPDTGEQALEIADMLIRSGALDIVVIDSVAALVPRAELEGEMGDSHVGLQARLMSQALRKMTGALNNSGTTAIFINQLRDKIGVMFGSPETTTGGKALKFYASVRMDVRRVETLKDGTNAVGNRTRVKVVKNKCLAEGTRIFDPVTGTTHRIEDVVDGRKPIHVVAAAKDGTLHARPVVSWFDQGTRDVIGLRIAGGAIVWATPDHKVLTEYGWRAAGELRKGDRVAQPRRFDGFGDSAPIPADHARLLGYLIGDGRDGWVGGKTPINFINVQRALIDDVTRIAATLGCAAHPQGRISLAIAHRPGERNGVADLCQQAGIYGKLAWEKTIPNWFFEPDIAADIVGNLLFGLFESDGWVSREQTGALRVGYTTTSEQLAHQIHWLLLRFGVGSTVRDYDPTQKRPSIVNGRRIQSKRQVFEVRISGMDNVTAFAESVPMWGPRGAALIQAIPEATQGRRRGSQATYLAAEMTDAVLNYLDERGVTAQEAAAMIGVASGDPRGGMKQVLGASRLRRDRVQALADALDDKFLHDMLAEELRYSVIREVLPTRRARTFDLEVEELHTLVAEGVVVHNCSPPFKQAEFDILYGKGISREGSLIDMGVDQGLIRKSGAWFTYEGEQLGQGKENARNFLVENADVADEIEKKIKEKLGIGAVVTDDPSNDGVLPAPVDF

[5] = test system: HEK293; assay: cells; assay type: functional, cell-based; details: Homo sapiens; remark: listed apart in the source
[6] = LGR2 antagonists, dose response, cell-based, HEK293, CRE-luciferase reporter, cherry pick, set 2 (AID 743343); assay type: functional;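 also: transfected cells were stimulated with diluted bursicon conditioned medium after compound addition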
[7] = A549 cell cytotoxicity, dose response, cytotoxicity control, plate reader, cherry-pick, antagonist series (AID 743412); assay type: functional, cell-based
[8] = MC4R antagonists, dose response, counter-screen for LGR2 antagonist project, cell-based, plate reader, cherry pick (AID 743444); assay type: functional;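 also: transfected HEK 293 cells stimulated with alpha-MSH peptide; potency of inhibitors of the alpha-MSH evoked signal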
[9] = test system: HEK293; assay: NOD1 signaling inhibitors, primary screen, cell-based, luminescence, uHTS (AID 1578); assay type: functional; details: Homo sapiens
[10] = HEK293 cell cytotoxicity, dose response, cytotoxicity control, plate reader, cherry-picked samples (AID 743446); assay type: functional, cell-based
[11] = cells; assay type: functional
[12] = molecular target: T3, Microphthalmia-associated transcription factor (Homo sapiens, UniProt O75030); assay: TRPM1 promoter luciferase signal decrease, dose response, MITF inhibitor project, cell-based, SK-MEL-5, cherry-picked, set 3 (AID 493073); assay type: functional
T3 sequence (O75030 whole entry): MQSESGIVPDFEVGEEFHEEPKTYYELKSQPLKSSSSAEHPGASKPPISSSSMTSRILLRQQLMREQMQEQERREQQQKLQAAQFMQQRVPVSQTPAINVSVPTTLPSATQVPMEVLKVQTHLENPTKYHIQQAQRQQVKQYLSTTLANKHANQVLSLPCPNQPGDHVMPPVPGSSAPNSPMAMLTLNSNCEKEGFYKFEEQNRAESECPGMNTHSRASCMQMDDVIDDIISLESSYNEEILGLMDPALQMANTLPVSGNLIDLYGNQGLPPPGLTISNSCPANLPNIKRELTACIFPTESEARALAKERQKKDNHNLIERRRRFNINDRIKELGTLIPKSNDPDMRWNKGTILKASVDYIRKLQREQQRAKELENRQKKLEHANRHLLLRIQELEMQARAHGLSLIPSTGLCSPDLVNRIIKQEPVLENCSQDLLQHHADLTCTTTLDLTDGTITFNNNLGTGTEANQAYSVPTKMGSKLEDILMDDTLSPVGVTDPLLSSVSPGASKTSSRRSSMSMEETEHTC

[13] = test system: HEK293; assay: NOD2 signaling inhibitors in MDP-stimulated cells, cell-based, uHTS, luminescence (AID 2001); assay type: functional; details: Homo sapiens
[14] = molecular target: T4, Replicative DNA helicase DnaB (Mycobacterium tuberculosis, UniProt P9WMR3); assay: DnaB intein splicing inhibitors, dose response, biochemical, cell-free fluorescence (AID 449749); assay type: functional
T4 sequence (P9WMR3 whole entry): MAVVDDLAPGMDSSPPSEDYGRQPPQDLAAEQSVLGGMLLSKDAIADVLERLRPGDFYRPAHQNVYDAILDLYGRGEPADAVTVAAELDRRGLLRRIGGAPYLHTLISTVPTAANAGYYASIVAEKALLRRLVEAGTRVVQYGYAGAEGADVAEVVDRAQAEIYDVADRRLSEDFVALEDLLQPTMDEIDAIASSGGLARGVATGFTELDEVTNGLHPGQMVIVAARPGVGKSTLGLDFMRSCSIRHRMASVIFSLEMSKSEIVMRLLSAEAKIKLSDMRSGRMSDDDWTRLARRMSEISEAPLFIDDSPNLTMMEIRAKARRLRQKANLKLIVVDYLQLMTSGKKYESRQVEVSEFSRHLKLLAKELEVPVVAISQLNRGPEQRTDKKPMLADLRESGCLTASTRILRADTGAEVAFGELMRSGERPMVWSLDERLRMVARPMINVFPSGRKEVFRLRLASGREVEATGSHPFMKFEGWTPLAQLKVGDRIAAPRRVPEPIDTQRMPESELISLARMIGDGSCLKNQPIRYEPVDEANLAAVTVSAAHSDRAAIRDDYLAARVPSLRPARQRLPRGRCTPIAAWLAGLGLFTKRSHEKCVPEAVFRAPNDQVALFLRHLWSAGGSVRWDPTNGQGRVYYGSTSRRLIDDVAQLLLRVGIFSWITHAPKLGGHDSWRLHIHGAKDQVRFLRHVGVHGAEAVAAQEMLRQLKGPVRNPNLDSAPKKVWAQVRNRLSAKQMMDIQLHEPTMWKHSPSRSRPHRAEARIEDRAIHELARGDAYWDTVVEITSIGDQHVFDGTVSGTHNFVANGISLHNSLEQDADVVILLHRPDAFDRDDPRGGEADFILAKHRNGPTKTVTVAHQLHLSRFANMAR

[15] = HepG2 cell cytotoxicity, dose response, cytotoxicity control, plate reader, cherry-pick, antagonist series (AID 743416); assay type: functional, cell-based
[16] = microbe, parasite or virus in culture; assay type: functional; details: Mycobacterium tuberculosis
[17] = THP-1 cell cytotoxicity, dose response, cytotoxicity control for non-replicating M. tuberculosis project (AID 489025); assay type: functional
[18] = test system: Streptococcus; assay: Group A Streptococcus viability loss, dose response, counter-screen for streptokinase expression inhibitor project, luminescence, BacTiterGlo (AID 1915); assay type: functional, organism-based;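 also: potency for reduction of bacterial viability or growth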
[19] = test system: Streptococcus sp. 'group A'; assay: growth inhibition of control SK(-) GAS strain, dose response, counter-screen for streptokinase expression inhibitor project, luminescence, kanamycin, BacTiterGlo, confirmation (AID 1900); assay type: functional, organism-based
[20] = test system: Vero; assay: host cell cytotoxicity of antiviral hits, dose response, cytotoxicity control for West Nile virus antiviral project, secondary assay (AID 1650); assay type: functional; details: Chlorocebus sabaeus
[21] = molecular target: T5, Streptokinase A (Streptococcus pyogenes serotype M1, UniProt P10520); assay: S. pyogenes streptokinase expression inhibitors, potency, dose response, plasminogen activation absorbance, OD405 (AID 1914); assay type: functional, Streptococcus pyogenes M1 GAS;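 also: secreted streptokinase activity via plasminogen activation per viability signal from cell pellet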
T5 sequence (P10520 whole entry): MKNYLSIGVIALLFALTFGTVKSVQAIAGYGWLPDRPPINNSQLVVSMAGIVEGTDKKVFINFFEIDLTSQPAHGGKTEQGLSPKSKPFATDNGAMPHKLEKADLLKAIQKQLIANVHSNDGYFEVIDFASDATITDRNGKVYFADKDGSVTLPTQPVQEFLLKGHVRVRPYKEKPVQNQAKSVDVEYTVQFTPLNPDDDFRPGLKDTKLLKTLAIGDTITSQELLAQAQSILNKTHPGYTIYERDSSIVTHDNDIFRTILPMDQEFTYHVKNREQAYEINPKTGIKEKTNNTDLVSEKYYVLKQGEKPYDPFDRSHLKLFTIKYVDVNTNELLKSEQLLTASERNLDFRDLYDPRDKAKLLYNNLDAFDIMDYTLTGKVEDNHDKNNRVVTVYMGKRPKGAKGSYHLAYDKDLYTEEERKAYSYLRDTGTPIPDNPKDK

[22] = molecular target: T6, ATP-dependent translocase ABCB1 (Homo sapiens, UniProt P08183); assay: ABCG2 efflux pump inhibitor potency, dose response, Ig-MXP3 cells, JC-1, flow cytometry, set 2 (AID 504566); assay type: functional; details: read-out: EC50_MICROM_;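 also: flow cytometry median green fluorescence of retained JC-1 dye; potency of efflux pump inhibition measured as rising substrate retention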
[23] = molecular target: T6, ATP-dependent translocase ABCB1; assay: ABCB1 efflux inhibitor potency, dose response, Jurkat-DNR cells, JC-1, flow cytometry, set 2 (AID 504569); assay type: functional; details: read-out: EC50_MICROM_;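 also: potency of pump inhibitors that raise cellular JC-1 green fluorescence up to the nicardipine level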
[24] = molecular target: T7, Low molecular weight phosphotyrosine protein phosphatase (Homo sapiens, UniProt P24666); assay type: functional; details: read-out: IC50_Mean
T7 sequence (P24666 whole entry): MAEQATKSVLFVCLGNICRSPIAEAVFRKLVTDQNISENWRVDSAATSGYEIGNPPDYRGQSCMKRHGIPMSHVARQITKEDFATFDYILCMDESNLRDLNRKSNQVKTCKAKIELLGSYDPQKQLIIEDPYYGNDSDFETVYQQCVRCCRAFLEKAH

[25] = molecular target: T7, Low molecular weight phosphotyrosine protein phosphatase; assay type: functional; details: read-out: IC50_Mean; remark: listed apart in the source

T6 sequence (P08183 whole entry): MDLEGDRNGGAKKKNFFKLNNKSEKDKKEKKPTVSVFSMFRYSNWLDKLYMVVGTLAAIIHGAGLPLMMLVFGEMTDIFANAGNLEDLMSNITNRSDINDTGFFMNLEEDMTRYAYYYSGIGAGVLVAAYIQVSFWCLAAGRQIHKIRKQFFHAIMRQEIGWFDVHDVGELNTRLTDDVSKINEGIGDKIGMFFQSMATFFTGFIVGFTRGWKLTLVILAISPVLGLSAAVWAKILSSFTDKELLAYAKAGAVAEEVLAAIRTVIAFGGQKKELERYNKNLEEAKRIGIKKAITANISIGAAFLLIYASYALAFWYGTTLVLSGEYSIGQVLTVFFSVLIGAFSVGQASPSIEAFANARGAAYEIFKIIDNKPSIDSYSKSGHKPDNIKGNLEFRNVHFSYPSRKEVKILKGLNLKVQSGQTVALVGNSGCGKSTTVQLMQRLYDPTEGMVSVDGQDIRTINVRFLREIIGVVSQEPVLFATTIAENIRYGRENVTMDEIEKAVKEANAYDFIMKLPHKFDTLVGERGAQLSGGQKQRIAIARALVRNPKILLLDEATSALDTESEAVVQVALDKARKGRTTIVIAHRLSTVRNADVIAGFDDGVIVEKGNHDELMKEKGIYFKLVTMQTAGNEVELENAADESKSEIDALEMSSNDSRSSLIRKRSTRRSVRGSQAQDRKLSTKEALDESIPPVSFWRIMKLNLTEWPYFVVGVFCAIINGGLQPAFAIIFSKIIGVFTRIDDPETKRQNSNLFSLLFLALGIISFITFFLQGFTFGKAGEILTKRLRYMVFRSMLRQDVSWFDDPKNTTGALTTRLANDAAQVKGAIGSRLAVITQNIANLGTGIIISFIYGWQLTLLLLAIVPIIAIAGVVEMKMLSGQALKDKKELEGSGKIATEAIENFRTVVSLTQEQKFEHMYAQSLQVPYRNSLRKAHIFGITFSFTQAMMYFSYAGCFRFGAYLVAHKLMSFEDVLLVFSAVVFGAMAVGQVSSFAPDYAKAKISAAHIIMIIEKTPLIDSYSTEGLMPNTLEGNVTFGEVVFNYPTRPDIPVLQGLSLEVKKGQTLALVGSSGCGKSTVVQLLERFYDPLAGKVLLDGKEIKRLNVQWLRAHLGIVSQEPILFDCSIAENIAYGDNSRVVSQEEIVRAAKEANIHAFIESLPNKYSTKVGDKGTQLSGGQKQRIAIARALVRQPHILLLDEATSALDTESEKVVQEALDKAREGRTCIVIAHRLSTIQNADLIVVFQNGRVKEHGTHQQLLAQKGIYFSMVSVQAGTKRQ

With `COc1cccc(C(=O)NC(=O)Nc2cc(C)[nH]n2)c1` the IC50 [1] was > 67.5 µM (inactive) and the IC50 [2] was > 67.5 µM (inactive).
For `CC(=O)c1ccc(Sc2nnnn2-c2ccccc2)c([N+](=O)[O-])c1`, the IC50 [3] was > 20 µM (inactive), the EC50 [4] was 14.5 µM (active) and the IC50 [5] was 2.12 µM (active). For the same compound, the AC50 [6] was 10.8 µM (active), the AC50 [7] was 49.7 µM (active) and the AC50 [8] was 9.52 µM (active). For the same compound, the EC50 [9] was 14.3 µM (active), the AC50 [10] was 33.2 µM (active) and the IC50 [11] was 26.2 µM (active). The AC50 [12] was 7.82 µM (active), the IC50 [13] was 3.13 µM (active) and the AC50 [14] was 5.34 µM (active). The AC50 [15] was > 52 µM (inactive), the CC50 [16] was > 40 µM (active) and the CC50 [17] was 14.9 µM (active).
In the case of `Cc1nn2c(N3CCN(C(=O)c4ccco4)CC3)cc(C(C)(C)C)nc2c1-c1ccccc1`, the EC50 [18] was 22.1 µM (active), the EC50 [19] was 3.59 µM (active) and the CC50 [20] was 42.1 µM (active). The EC50 [21] was 8.62 µM (active), the EC50 [22] was 6.22 µM (active) and the EC50 [23] was 11.1 µM (active).
In the case of `COc1ccc(-c2cc(=O)c3ccccc3o2)cc1` [4'-METHOXYFLAVONE], the IC50 [1] was > 67.5 µM (inactive) and the IC50 [2] was > 67.5 µM (inactive).
With `CN(Cc1ccc(C(C)(C)C)cc1)C(=O)C1CCN(C(=O)Nc2ccccc2)CC1` the IC50 [1] was > 67.5 µM (inactive) and the IC50 [2] was > 67.5 µM (inactive).
For `CNc1nc2c(-c3ccc(Cl)cc3)nnn2c2ccccc12`, the IC50 [24] was 3.14 µM (active) and the IC50 [25] was 11.1 µM (active).
In the case of `Cc1cc(N2CCN(C(=O)c3ccco3)CC2)n2nc(-c3ccc(F)cc3)cc2n1`, the EC50 [22] was 2.87 µM (active) and the EC50 [23] was 10.8 µM (active).
For `Cc1cccnc1NC(=O)C(C)N1C(=O)c2ccccc2C1=O` (stereo not drawn), the IC50 [1] was > 67.5 µM (inactive) and the IC50 [2] was > 67.5 µM (inactive).
